Consider 14 molecules from PubChem BioAssay (NCI).

Among the test systems are HT29 colon; OVCAR-4 ovarian; K-562 leukemia; A498 renal; SNB-75 CNS; HOP-62 NSCLC; OVCAR-5 ovarian; NCI/ADR-RES ovarian; CCRF-CEM leukemia; HCC-2998 colon.
Holding throughout (assay): DTP human tumour cell line panel, 48 h

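Compound exposure: 48 hours, 5 concentrations, 96-well plates. GI50: concentration for 50% inhibition of growth. The concentration for full growth arrest is given as TGI.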 Where only a bound is given, the exact number is not on record here.

A word on the GI50: it is the concentration that inhibits growth by half. The term TGI denotes the concentration at which net growth stops. A higher TGI goes with lower sensitivity of the cells. As to `C=C1C(=O)O[C@H]2[C@H]1CC/C(COC(=O)c1c[nH]c3ccccc13)=C\CC[C@@]1(C)O[C@@H]21`, the 50% growth inhibitory concentration (GI50) is 0.249 µM in the assay with HT29 colon; 0.258 µM in the assay on OVCAR-4 ovarian; 0.279 µM in the assay on K-562 leukemia; 0.267 µM in the assay with A498 renal; 0.207 µM in the assay on SNB-75 CNS; 0.825 µM in the assay on HOP-62 NSCLC. Moreover, the 50% growth inhibitory concentration (GI50) in the assay with OVCAR-5 ovarian is 0.405 µM; in the assay with NCI/ADR-RES ovarian it was 0.397 µM; in the assay on CCRF-CEM leukemia, 0.058 µM; in the assay on HCC-2998 colon, 0.32 µM. Further, the TGI was found to be 0.58 µM in the assay with HT29 colon; 0.842 µM in the assay on OVCAR-4 ovarian; 1.62 µM with K-562 leukemia; 1.03 µM in the assay on A498 renal; 0.923 µM in the assay on SNB-75 CNS; 2.41 µM in the assay on HOP-62 NSCLC. Moreover, the TGI is 2.1 µM in the assay with OVCAR-5 ovarian, 11 µM with NCI/ADR-RES ovarian, 0.972 µM with CCRF-CEM leukemia and 1.08 µM in the assay on HCC-2998 colon.

As to `COC(=O)C1=C(C)NC(C)=C(C(=O)OCCCN2CCC(c3ccccc3)(c3ccccc3)CC2)C1c1cccc([N+](=O)[O-])c1` (stereo not given), the TGI is 2.71 µM with HT29 colon; 2.98 µM in the assay with OVCAR-4 ovarian; > 100 µM with K-562 leukemia; 8.69 µM with A498 renal; 9.84 µM with SNB-75 CNS; 9.16 µM with HOP-62 NSCLC. The TGI with OVCAR-5 ovarian is 7.3 µM; in the assay on NCI/ADR-RES ovarian it was 3.42 µM; in the assay with CCRF-CEM leukemia, > 100 µM; in the assay on HCC-2998 colon, 4.58 µM.

In the case of `C=C1NC(=O)C(C(C)CC)NC(=O)C2CSCC(NC(=O)CCC(=O)O)C(=O)NC(Cc3ccccc3)C(=O)NC(C)C(=O)NC(CC(C)CC)C(=O)NC(C(=O)NC(Cc3ccccc3)C(=O)N3CCCC3C(=O)N2)C(C)OC(=O)C(CO)NC(=O)C(C(O)COC)N(C)C(=O)C(C(C)C)NC(=O)C(CC(C)CC)NC1=O` (stereo not given), the GI50 in the assay on HT29 colon is 0.0165 µM; in the assay on OVCAR-4 ovarian, 0.339 µM; with K-562 leukemia, 0.0124 µM; in the assay on A498 renal, 0.00667 µM; in the assay with SNB-75 CNS it was 0.0048 µM; with HOP-62 NSCLC, 0.0198 µM. The GI50 with OVCAR-5 ovarian is 0.0327 µM; in the assay with NCI/ADR-RES ovarian, 0.0304 µM; in the assay with CCRF-CEM leukemia it was 0.0137 µM; in the assay with HCC-2998 colon, 0.0377 µM. Moreover, the TGI with HT29 colon was > 6 µM; in the assay with OVCAR-4 ovarian it was > 6 µM; with K-562 leukemia, > 6 µM; in the assay with A498 renal, 0.512 µM; with SNB-75 CNS, > 6 µM; with HOP-62 NSCLC, > 6 µM. For the same molecule, the TGI in the assay with OVCAR-5 ovarian, with NCI/ADR-RES ovarian, in the assay with CCRF-CEM leukemia and in the assay on HCC-2998 colon was > 6 µM in each case.

As to `CCN1CCN(c2nc(C)cc(N(CCNc3ccnc4cc(Cl)ccc34)Cc3ccc4c(c3)OCO4)n2)CC1`, the GI50 in the assay on HT29 colon is 1.83 µM; in the assay on OVCAR-4 ovarian, 2.58 µM; with K-562 leukemia it was 0.913 µM; in the assay on A498 renal, 1.9 µM; in the assay on SNB-75 CNS, 1.35 µM; in the assay on HOP-62 NSCLC, 2.21 µM. In addition, the GI50 in the assay on OVCAR-5 ovarian is 3.58 µM; in the assay on NCI/ADR-RES ovarian, 2.82 µM; with CCRF-CEM leukemia it was 2.12 µM; in the assay on HCC-2998 colon, 2.03 µM. Moreover, the TGI with HT29 colon was 4.83 µM; in the assay with OVCAR-4 ovarian, 11.4 µM; in the assay on K-562 leukemia, 2.76 µM; in the assay with A498 renal, 5.71 µM; with SNB-75 CNS, 2.9 µM; in the assay with HOP-62 NSCLC it was 11.5 µM. The TGI with OVCAR-5 ovarian was 13.6 µM; in the assay with NCI/ADR-RES ovarian, 10.8 µM; in the assay on CCRF-CEM leukemia, 5.88 µM; in the assay on HCC-2998 colon it was 3.96 µM.

As for `COc1cc(OC)cc(-c2cc(=O)c3c(OC)c(OC)c(OC)c(OC)c3o2)c1`, the TGI with HT29 colon is > 100 µM; in the assay with OVCAR-4 ovarian it was > 100 µM; with K-562 leukemia, > 100 µM; in the assay with A498 renal it was 89.6 µM; with SNB-75 CNS, > 100 µM; in the assay with HOP-62 NSCLC, > 100 µM. Also, the TGI with OVCAR-5 ovarian, in the assay on NCI/ADR-RES ovarian, with CCRF-CEM leukemia and in the assay with HCC-2998 colon was > 100 µM in each case.

`CC(=O)OC1=CC(n2cc(F)c(=O)[nH]c2=O)OC(C)C1=O` (stereo not given): the TGI in the assay with HT29 colon is > 100 µM; with OVCAR-4 ovarian it was > 100 µM; in the assay on K-562 leukemia, > 100 µM; with A498 renal, > 44.9 µM; in the assay on SNB-75 CNS, 99.5 µM; in the assay on HOP-62 NSCLC, > 100 µM. Moreover, the total growth inhibition concentration (TGI) in the assay with OVCAR-5 ovarian is > 100 µM; with NCI/ADR-RES ovarian, > 100 µM; in the assay on CCRF-CEM leukemia, > 100 µM; in the assay on HCC-2998 colon, > 97.2 µM.

In the case of `N#CC(C#N)=CNC(N)=S`, the TGI in the assay with HT29 colon, with OVCAR-4 ovarian, in the assay on K-562 leukemia, with A498 renal, in the assay on SNB-75 CNS and in the assay with HOP-62 NSCLC was > 100 µM throughout. Further, the TGI in the assay on OVCAR-5 ovarian, in the assay on NCI/ADR-RES ovarian, with CCRF-CEM leukemia and in the assay on HCC-2998 colon was > 100 µM each time.

Turning to `OCc1ccc(-c2ccc(-c3ccc(CO)s3)o2)s1`, the TGI in the assay with HT29 colon was > 95 µM; with OVCAR-4 ovarian it was 2.76 µM; with K-562 leukemia, 38.3 µM; with A498 renal, 0.0278 µM; in the assay on SNB-75 CNS, 80.3 µM; in the assay with HOP-62 NSCLC, 17.2 µM. For the same molecule, the TGI in the assay on OVCAR-5 ovarian was determined as 0.102 µM; in the assay with NCI/ADR-RES ovarian, 71.5 µM; in the assay on CCRF-CEM leukemia, 72.2 µM; with HCC-2998 colon it was 4.02 µM.

Turning to `COC1=CC(=O)C(C2CC(=O)c3c(O)cc(O)cc3O2)=CC1=O` (stereo not given), the TGI in the assay with HT29 colon is > 61.3 µM; in the assay on OVCAR-4 ovarian, 36.5 µM; in the assay on K-562 leukemia it was 40.8 µM; with A498 renal, > 58 µM; in the assay on SNB-75 CNS, 39.7 µM; in the assay on HOP-62 NSCLC, 34.8 µM. Besides, the total growth inhibition concentration (TGI) was 41.4 µM with OVCAR-5 ovarian, 46.5 µM in the assay on NCI/ADR-RES ovarian, 2.42 µM in the assay with CCRF-CEM leukemia and 32.1 µM with HCC-2998 colon.

For `Cn1cnc([N+](=O)[O-])c1S(=O)(=O)Oc1cccc2ccccc12`, the GI50 is 1.8 µM in the assay on HT29 colon; 2.03 µM in the assay with OVCAR-4 ovarian; 1.6 µM in the assay with K-562 leukemia; 11.8 µM in the assay on A498 renal; 9.55 µM in the assay on SNB-75 CNS; 2.56 µM in the assay with HOP-62 NSCLC. In addition, the GI50 in the assay on OVCAR-5 ovarian is 7.55 µM; in the assay on NCI/ADR-RES ovarian, 7.59 µM; with CCRF-CEM leukemia, 1.32 µM; with HCC-2998 colon, 13.1 µM. Besides, the TGI in the assay on HT29 colon was 3.99 µM; in the assay with OVCAR-4 ovarian it was 5.96 µM; in the assay on K-562 leukemia it was 8.63 µM; in the assay on A498 renal, 27.2 µM; with SNB-75 CNS, 32.3 µM; in the assay with HOP-62 NSCLC, 5.45 µM. Also, the TGI with OVCAR-5 ovarian turned out to be 27.8 µM; in the assay on NCI/ADR-RES ovarian, 33 µM; in the assay with CCRF-CEM leukemia, 9.3 µM; with HCC-2998 colon it was 26.6 µM.

On to `O=C(/C=C/c1ccc(Cl)cc1)c1ccc(Nc2ccnc3cc(Cl)ccc23)cc1`, for which the GI50 was 1.07 µM in the assay on HT29 colon; > 100 µM in the assay on OVCAR-4 ovarian; 4.98 µM in the assay on K-562 leukemia; > 44.7 µM in the assay with A498 renal; > 100 µM in the assay with SNB-75 CNS; 99.2 µM in the assay with HOP-62 NSCLC. For the same molecule, the GI50 with OVCAR-5 ovarian is 22.1 µM; in the assay with NCI/ADR-RES ovarian, > 100 µM; with CCRF-CEM leukemia, 7.3 µM; with HCC-2998 colon, > 80.5 µM. Besides, the TGI with HT29 colon was > 100 µM; with OVCAR-4 ovarian, > 100 µM; in the assay on K-562 leukemia, > 100 µM; in the assay on A498 renal, > 71.8 µM; with SNB-75 CNS it was > 100 µM; with HOP-62 NSCLC, > 100 µM. The TGI in the assay on OVCAR-5 ovarian is 68.5 µM; in the assay with NCI/ADR-RES ovarian, > 100 µM; in the assay with CCRF-CEM leukemia it was > 100 µM; in the assay on HCC-2998 colon it was > 100 µM.

For `CSc1nc(NC2OCC(OC(C)=O)C(OC(C)=O)C2OC(C)=O)c(N=CC=Nc2c(NC3OCC(OC(C)=O)C(OC(C)=O)C3OC(C)=O)nc(SC)[nH]c2=O)c(=O)[nH]1` (stereo not given), the TGI in the assay with HT29 colon was > 100 µM; with OVCAR-4 ovarian, > 100 µM; in the assay with K-562 leukemia, > 100 µM; in the assay on A498 renal, > 100 µM; with SNB-75 CNS, 57.4 µM; in the assay with HOP-62 NSCLC, > 92.6 µM. Also, the TGI with OVCAR-5 ovarian, with NCI/ADR-RES ovarian, in the assay with CCRF-CEM leukemia and in the assay on HCC-2998 colon was > 100 µM each time.

On to `CCOC(=O)c1cc2nc3ccccc3c(=O)n2c2ccccc12`, for which the TGI in the assay on HT29 colon, in the assay on OVCAR-4 ovarian, with K-562 leukemia, with A498 renal, in the assay on SNB-75 CNS and in the assay on HOP-62 NSCLC was > 10 µM throughout. For the same molecule, the TGI with OVCAR-5 ovarian, in the assay on NCI/ADR-RES ovarian, with CCRF-CEM leukemia and in the assay on HCC-2998 colon was > 10 µM each time.

As to `Cc1cc2c(cc1Cl)SC(N(N(C)C)S(=O)(=O)c1ccc(Cl)cc1)=NS2(=O)=O`, the GI50 in the assay on HT29 colon is 27.1 µM; with OVCAR-4 ovarian it was 23.4 µM; with K-562 leukemia, 31.8 µM; in the assay on A498 renal it was 15.8 µM; with SNB-75 CNS, 36 µM; in the assay with HOP-62 NSCLC it was 29.6 µM. Moreover, the GI50 with OVCAR-5 ovarian was 53.8 µM; in the assay with NCI/ADR-RES ovarian, 28 µM; in the assay with CCRF-CEM leukemia, 3.29 µM; with HCC-2998 colon, 17 µM. Moreover, the TGI in the assay on HT29 colon is 99.2 µM; in the assay on OVCAR-4 ovarian, 96.4 µM; in the assay on K-562 leukemia, > 100 µM; with A498 renal, 37.6 µM; with SNB-75 CNS it was 97.5 µM; with HOP-62 NSCLC it was 96.1 µM. Moreover, the TGI was > 100 µM in the assay with OVCAR-5 ovarian, > 100 µM with NCI/ADR-RES ovarian, > 100 µM in the assay on CCRF-CEM leukemia and 44.6 µM in the assay with HCC-2998 colon.
